# Measured values published in ChEMBL document CHEMBL3112450, “Synthesis and in vitro antitumor evaluation of primary amine substituted quinazoline linked benzimidazole” (Bioorg Med Chem Lett, 2014).
# Tested on: M14
# Assay: Cytotoxicity against human M14 cells assessed as cell growth at 10^-5 M after 48 hrs by SRB assay
# Assay type: functional
# Settings: M14, 48 h, read-out: Activity
row,Structure (SMILES),growth at 10 µM [%]
1,C=CCn1c(C)nc2ccc(Nc3nc(Sc4ccc(N)cc4)nc4ccccc34)cc21,109
2,C=CCn1c(C)nc2cc(Nc3nc(NCCO)nc4ccccc34)ccc21,93.3
3,C=CCn1c(C)nc2ccc(Nc3nc(Nc4ncccn4)nc4ccccc34)cc21,115
4,C=CCn1c(C)nc2cc(Nc3nc(Nc4ccc5nc(C)n(CC=C)c5c4)nc4ccccc34)ccc21,109

# Tested on: MOLT-4
# Assay: Cytotoxicity against human MOLT4 cells assessed as cell growth at 10^-5 M after 48 hrs by SRB assay
# Assay type: functional
# Settings: MOLT-4, 48 h, read-out: Activity
row,Structure (SMILES),growth at 10 µM [%]
1,C=CCn1c(C)nc2ccc(Nc3nc(Sc4ccc(N)cc4)nc4ccccc34)cc21,88.2
2,C=CCn1c(C)nc2cc(Nc3nc(NCCO)nc4ccccc34)ccc21,56.7
3,C=CCn1c(C)nc2ccc(Nc3nc(Nc4ncccn4)nc4ccccc34)cc21,97.2
4,C=CCn1c(C)nc2cc(Nc3nc(Nc4ccc5nc(C)n(CC=C)c5c4)nc4ccccc34)ccc21,101

# Tested on: NCI-H522
# Assay: Cytotoxicity against human NCI-H522 cells assessed as cell growth at 10^-5 M after 48 hrs by SRB assay
# Assay type: functional
# Settings: NCI-H522, 48 h, read-out: Activity
row,Structure (SMILES),growth at 10 µM [%]
1,C=CCn1c(C)nc2ccc(Nc3nc(Sc4ccc(N)cc4)nc4ccccc34)cc21,89.5
2,C=CCn1c(C)nc2cc(Nc3nc(NCCO)nc4ccccc34)ccc21,88.1
3,C=CCn1c(C)nc2ccc(Nc3nc(Nc4ncccn4)nc4ccccc34)cc21,98.1
4,C=CCn1c(C)nc2cc(Nc3nc(Nc4ccc5nc(C)n(CC=C)c5c4)nc4ccccc34)ccc21,99.1

# Tested on: IGROV-1
# Assay: Cytotoxicity against human IGROV1 cells assessed as cell growth at 10^-5 M after 48 hrs by SRB assay
# Assay type: functional
# Settings: IGROV-1, 48 h, read-out: Activity
row,Structure (SMILES),growth at 10 µM [%]
1,C=CCn1c(C)nc2ccc(Nc3nc(Sc4ccc(N)cc4)nc4ccccc34)cc21,102
2,C=CCn1c(C)nc2cc(Nc3nc(NCCO)nc4ccccc34)ccc21,95.3
3,C=CCn1c(C)nc2ccc(Nc3nc(Nc4ncccn4)nc4ccccc34)cc21,84.1
4,C=CCn1c(C)nc2cc(Nc3nc(Nc4ccc5nc(C)n(CC=C)c5c4)nc4ccccc34)ccc21,102

# Tested on: not listed separately
# Assay: Cytotoxicity against human UO31 cells assessed as cell growth at 10^-5 M after 48 hrs by SRB assay
# Assay type: functional
# Settings: UO-31, 48 h, read-out: Activity
row,Structure (SMILES),growth at 10 µM [%]
1,C=CCn1c(C)nc2ccc(Nc3nc(Sc4ccc(N)cc4)nc4ccccc34)cc21,89.5
2,C=CCn1c(C)nc2cc(Nc3nc(NCCO)nc4ccccc34)ccc21,72.4
3,C=CCn1c(C)nc2ccc(Nc3nc(Nc4ncccn4)nc4ccccc34)cc21,82.1
4,C=CCn1c(C)nc2cc(Nc3nc(Nc4ccc5nc(C)n(CC=C)c5c4)nc4ccccc34)ccc21,89.3

# Tested on: not listed separately
# Assay: Cytotoxicity against human OVCAR5 cells assessed as cell growth at 10^-5 M after 48 hrs by SRB assay
# Assay type: functional
# Settings: OVCAR-5, 48 h, read-out: Activity
row,Structure (SMILES),growth at 10 µM [%]
1,C=CCn1c(C)nc2ccc(Nc3nc(Sc4ccc(N)cc4)nc4ccccc34)cc21,118
2,C=CCn1c(C)nc2cc(Nc3nc(NCCO)nc4ccccc34)ccc21,92.2
3,C=CCn1c(C)nc2ccc(Nc3nc(Nc4ncccn4)nc4ccccc34)cc21,114
4,C=CCn1c(C)nc2cc(Nc3nc(Nc4ccc5nc(C)n(CC=C)c5c4)nc4ccccc34)ccc21,107

# Tested on: MDA-MB-435
# Assay: Cytotoxicity against human MDA-MB-435 cells assessed as cell growth at 10^-5 M after 48 hrs by SRB assay
# Assay type: functional
# Settings: MDA-MB-435, 48 h, read-out: Activity
row,Structure (SMILES),growth at 10 µM [%]
1,C=CCn1c(C)nc2ccc(Nc3nc(Sc4ccc(N)cc4)nc4ccccc34)cc21,96.9
2,C=CCn1c(C)nc2cc(Nc3nc(NCCO)nc4ccccc34)ccc21,92.1
3,C=CCn1c(C)nc2ccc(Nc3nc(Nc4ncccn4)nc4ccccc34)cc21,107
4,C=CCn1c(C)nc2cc(Nc3nc(Nc4ccc5nc(C)n(CC=C)c5c4)nc4ccccc34)ccc21,108

# Tested on: NCI-H226
# Assay: Cytotoxicity against human NCI-H226 cells assessed as cell growth at 10^-5 M after 48 hrs by SRB assay
# Assay type: functional
# Settings: NCI-H226, 48 h, read-out: Activity
row,Structure (SMILES),growth at 10 µM [%]
1,C=CCn1c(C)nc2ccc(Nc3nc(Sc4ccc(N)cc4)nc4ccccc34)cc21,109
2,C=CCn1c(C)nc2cc(Nc3nc(NCCO)nc4ccccc34)ccc21,78.8
3,C=CCn1c(C)nc2ccc(Nc3nc(Nc4ncccn4)nc4ccccc34)cc21,92.2
4,C=CCn1c(C)nc2cc(Nc3nc(Nc4ccc5nc(C)n(CC=C)c5c4)nc4ccccc34)ccc21,99.8

# Tested on: not listed separately
# Assay: Cytotoxicity against human NCI-ADR-RES cells assessed as cell growth at 10^-5 M after 48 hrs by SRB assay
# Assay type: functional
# Settings: read-out: Activity
row,Structure (SMILES),growth at 10 µM [%]
1,C=CCn1c(C)nc2ccc(Nc3nc(Sc4ccc(N)cc4)nc4ccccc34)cc21,97.8
2,C=CCn1c(C)nc2cc(Nc3nc(NCCO)nc4ccccc34)ccc21,97.7
3,C=CCn1c(C)nc2ccc(Nc3nc(Nc4ncccn4)nc4ccccc34)cc21,103
4,C=CCn1c(C)nc2cc(Nc3nc(Nc4ccc5nc(C)n(CC=C)c5c4)nc4ccccc34)ccc21,101

# Tested on: HCC 2998
# Assay: Cytotoxicity against human HCC2998 cells assessed as cell growth at 10^-5 M after 48 hrs by SRB assay
# Assay type: functional
# Settings: HCC 2998, 48 h, read-out: Activity
row,Structure (SMILES),growth at 10 µM [%]
1,C=CCn1c(C)nc2ccc(Nc3nc(Sc4ccc(N)cc4)nc4ccccc34)cc21,103
2,C=CCn1c(C)nc2cc(Nc3nc(NCCO)nc4ccccc34)ccc21,89
3,C=CCn1c(C)nc2ccc(Nc3nc(Nc4ncccn4)nc4ccccc34)cc21,106
4,C=CCn1c(C)nc2cc(Nc3nc(Nc4ccc5nc(C)n(CC=C)c5c4)nc4ccccc34)ccc21,104

# Tested on: SF-295
# Assay: Cytotoxicity against human SF295 cells assessed as cell growth at 10^-5 M after 48 hrs by SRB assay
# Assay type: functional
# Settings: SF-295, 48 h, read-out: Activity
row,Structure (SMILES),growth at 10 µM [%]
1,C=CCn1c(C)nc2ccc(Nc3nc(Sc4ccc(N)cc4)nc4ccccc34)cc21,77.1
2,C=CCn1c(C)nc2cc(Nc3nc(NCCO)nc4ccccc34)ccc21,90.6
3,C=CCn1c(C)nc2ccc(Nc3nc(Nc4ncccn4)nc4ccccc34)cc21,86.9

# Tested on: MDA-MB-231
# Assay: Cytotoxicity against human MDA-MB-231 cells assessed as cell growth at 10^-5 M after 48 hrs by SRB assay
# Assay type: functional
# Settings: MDA-MB-231, 48 h, read-out: Activity
row,Structure (SMILES),growth at 10 µM [%]
1,C=CCn1c(C)nc2ccc(Nc3nc(Sc4ccc(N)cc4)nc4ccccc34)cc21,80.5
2,C=CCn1c(C)nc2cc(Nc3nc(NCCO)nc4ccccc34)ccc21,72.9
3,C=CCn1c(C)nc2ccc(Nc3nc(Nc4ncccn4)nc4ccccc34)cc21,84.4
4,C=CCn1c(C)nc2cc(Nc3nc(Nc4ccc5nc(C)n(CC=C)c5c4)nc4ccccc34)ccc21,90

# Tested on: MDA-MB-468
# Assay: Cytotoxicity against human MDA-MB-468 cells assessed as cell growth at 10^-5 M after 48 hrs by SRB assay
# Assay type: functional
# Settings: MDA-MB-468, 48 h, read-out: Activity
row,Structure (SMILES),growth at 10 µM [%]
1,C=CCn1c(C)nc2ccc(Nc3nc(Sc4ccc(N)cc4)nc4ccccc34)cc21,106
2,C=CCn1c(C)nc2cc(Nc3nc(NCCO)nc4ccccc34)ccc21,53.5
3,C=CCn1c(C)nc2ccc(Nc3nc(Nc4ncccn4)nc4ccccc34)cc21,78.3
4,C=CCn1c(C)nc2cc(Nc3nc(Nc4ccc5nc(C)n(CC=C)c5c4)nc4ccccc34)ccc21,118

# Tested on: MCF7
# Assay: Cytotoxicity against human MCF7 cells assessed as cell growth at 10^-5 M after 48 hrs by SRB assay
# Assay type: functional
# Settings: MCF7, 48 h, read-out: Activity
row,Structure (SMILES),growth at 10 µM [%]
1,C=CCn1c(C)nc2ccc(Nc3nc(Sc4ccc(N)cc4)nc4ccccc34)cc21,93.2
2,C=CCn1c(C)nc2cc(Nc3nc(NCCO)nc4ccccc34)ccc21,72.2
3,C=CCn1c(C)nc2ccc(Nc3nc(Nc4ncccn4)nc4ccccc34)cc21,82.4
4,C=CCn1c(C)nc2cc(Nc3nc(Nc4ccc5nc(C)n(CC=C)c5c4)nc4ccccc34)ccc21,92.4

# Tested on: not listed separately
# Assay: Cytotoxicity against human UACC257 cells assessed as cell growth at 10^-5 M after 48 hrs by SRB assay
# Assay type: functional
# Settings: UACC-257, 48 h, read-out: Activity
row,Structure (SMILES),growth at 10 µM [%]
1,C=CCn1c(C)nc2ccc(Nc3nc(Sc4ccc(N)cc4)nc4ccccc34)cc21,110
2,C=CCn1c(C)nc2cc(Nc3nc(NCCO)nc4ccccc34)ccc21,97.7
3,C=CCn1c(C)nc2ccc(Nc3nc(Nc4ncccn4)nc4ccccc34)cc21,101
4,C=CCn1c(C)nc2cc(Nc3nc(Nc4ccc5nc(C)n(CC=C)c5c4)nc4ccccc34)ccc21,102

# Tested on: U-251
# Assay: Cytotoxicity against human U251 cells assessed as cell growth at 10^-5 M after 48 hrs by SRB assay
# Assay type: functional
# Settings: U-251, 48 h, read-out: Activity
row,Structure (SMILES),growth at 10 µM [%]
1,C=CCn1c(C)nc2ccc(Nc3nc(Sc4ccc(N)cc4)nc4ccccc34)cc21,91.3
2,C=CCn1c(C)nc2cc(Nc3nc(NCCO)nc4ccccc34)ccc21,90.9
3,C=CCn1c(C)nc2ccc(Nc3nc(Nc4ncccn4)nc4ccccc34)cc21,89.8
4,C=CCn1c(C)nc2cc(Nc3nc(Nc4ccc5nc(C)n(CC=C)c5c4)nc4ccccc34)ccc21,94.4

# Tested on: NCI-H460
# Assay: Cytotoxicity against human NCI-H460 cells assessed as cell growth at 10^-5 M after 48 hrs by SRB assay
# Assay type: functional
# Settings: NCI-H460, 48 h, read-out: Activity
row,Structure (SMILES),growth at 10 µM [%]
1,C=CCn1c(C)nc2ccc(Nc3nc(Sc4ccc(N)cc4)nc4ccccc34)cc21,104
2,C=CCn1c(C)nc2cc(Nc3nc(NCCO)nc4ccccc34)ccc21,96
3,C=CCn1c(C)nc2ccc(Nc3nc(Nc4ncccn4)nc4ccccc34)cc21,97.8
4,C=CCn1c(C)nc2cc(Nc3nc(Nc4ccc5nc(C)n(CC=C)c5c4)nc4ccccc34)ccc21,117

# Tested on: HCT-116
# Assay: Cytotoxicity against human HCT116 cells assessed as cell growth at 10^-5 M after 48 hrs by SRB assay
# Assay type: functional
# Settings: HCT-116, 48 h, read-out: Activity
row,Structure (SMILES),growth at 10 µM [%]
1,C=CCn1c(C)nc2ccc(Nc3nc(Sc4ccc(N)cc4)nc4ccccc34)cc21,93.2
2,C=CCn1c(C)nc2cc(Nc3nc(NCCO)nc4ccccc34)ccc21,64
3,C=CCn1c(C)nc2ccc(Nc3nc(Nc4ncccn4)nc4ccccc34)cc21,94.2
4,C=CCn1c(C)nc2cc(Nc3nc(Nc4ccc5nc(C)n(CC=C)c5c4)nc4ccccc34)ccc21,98.9

# Tested on: KM12
# Assay: Cytotoxicity against human KM12 cells assessed as cell growth at 10^-5 M after 48 hrs by SRB assay
# Assay type: functional
# Settings: KM12, 48 h, read-out: Activity
row,Structure (SMILES),growth at 10 µM [%]
1,C=CCn1c(C)nc2ccc(Nc3nc(Sc4ccc(N)cc4)nc4ccccc34)cc21,96.8
2,C=CCn1c(C)nc2cc(Nc3nc(NCCO)nc4ccccc34)ccc21,73.1
3,C=CCn1c(C)nc2ccc(Nc3nc(Nc4ncccn4)nc4ccccc34)cc21,106
4,C=CCn1c(C)nc2cc(Nc3nc(Nc4ccc5nc(C)n(CC=C)c5c4)nc4ccccc34)ccc21,109

# Tested on: UACC-62
# Assay: Cytotoxicity against human UACC62 cells assessed as cell growth at 10^-5 M after 48 hrs by SRB assay
# Assay type: functional
# Settings: UACC-62, 48 h, read-out: Activity
row,Structure (SMILES),growth at 10 µM [%]
1,C=CCn1c(C)nc2ccc(Nc3nc(Sc4ccc(N)cc4)nc4ccccc34)cc21,83.1
2,C=CCn1c(C)nc2cc(Nc3nc(NCCO)nc4ccccc34)ccc21,85.5
3,C=CCn1c(C)nc2ccc(Nc3nc(Nc4ncccn4)nc4ccccc34)cc21,92.6
4,C=CCn1c(C)nc2cc(Nc3nc(Nc4ccc5nc(C)n(CC=C)c5c4)nc4ccccc34)ccc21,95.8

# Tested on: SNB-19
# Assay: Cytotoxicity against human SNB19 cells assessed as cell growth at 10^-5 M after 48 hrs by SRB assay
# Assay type: functional
# Settings: SNB-19, 48 h, read-out: Activity
row,Structure (SMILES),growth at 10 µM [%]
1,C=CCn1c(C)nc2ccc(Nc3nc(Sc4ccc(N)cc4)nc4ccccc34)cc21,93.2
2,C=CCn1c(C)nc2cc(Nc3nc(NCCO)nc4ccccc34)ccc21,90.2
3,C=CCn1c(C)nc2ccc(Nc3nc(Nc4ncccn4)nc4ccccc34)cc21,97.6
4,C=CCn1c(C)nc2cc(Nc3nc(Nc4ccc5nc(C)n(CC=C)c5c4)nc4ccccc34)ccc21,100
